# Reference: ChEMBL document CHEMBL1201862, “PubChem BioAssay data set” (2004)
# Calls of active or inactive are those of the source.
# Columns and labels:
# cells = type: functional, cell-based
# Paired box protein Pax-8 = Paired box protein Pax-8 (Homo sapiens, UniProt Q06710); assay: inhibitors of PAX8-driven TPO luciferase reporter, dose response, RMG-I cells, cherry-pick (AID 687027); type: functional, cell-based;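 further: luciferase reporter driven by Pax8 target thyroperoxidase promoter measured by SteadyGlo luminescence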
# [1] = target: T1, Nuclear receptor subfamily 0 group B member 1 (Homo sapiens, UniProt P51843); type: functional, cell-based;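 further: HEK293T cells transfected with SF-1 and DAX-1 plus StAR promoter luciferase reporter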
# T1 sequence (P51843 whole entry): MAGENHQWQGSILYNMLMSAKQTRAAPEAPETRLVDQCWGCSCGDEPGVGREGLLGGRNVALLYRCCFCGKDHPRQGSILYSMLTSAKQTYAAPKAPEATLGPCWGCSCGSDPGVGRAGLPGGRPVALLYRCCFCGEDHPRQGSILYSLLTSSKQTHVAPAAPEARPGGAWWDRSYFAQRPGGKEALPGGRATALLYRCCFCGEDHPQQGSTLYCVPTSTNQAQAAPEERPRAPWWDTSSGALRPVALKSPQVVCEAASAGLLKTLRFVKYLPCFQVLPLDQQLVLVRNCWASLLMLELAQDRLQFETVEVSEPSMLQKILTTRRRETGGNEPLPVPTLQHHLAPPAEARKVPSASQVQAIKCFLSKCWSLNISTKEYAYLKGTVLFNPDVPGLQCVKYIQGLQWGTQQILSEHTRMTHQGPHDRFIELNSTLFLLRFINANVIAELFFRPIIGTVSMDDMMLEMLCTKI
# [2] = Late stage assay provider results from the probe development effort to identify selective inhibitors of heat shock protein 90 (HSP90): Absorbance-based cell proliferation assay in MCF7 cells.; type: functional
# [3] = Late stage assay provider results from the probe development effort to identify selective inhibitors of heat shock protein 90 (HSP90): Absorbance-based cell proliferation assay in SKBR3 cells.; type: functional; conditions: SK-BR-3
# [4] = NIH3T3 fibroblast cytotoxicity, dose response, cytotoxicity control for PglD inhibitor project, cell-based, CellTiter-Glo luminescence, dry powder (AID 652044); type: functional
# Beta-lactamase [5] = target: T2, Beta-lactamase (Pseudomonas aeruginosa, UniProt Q79MP6); assay: […] counterscreen for selective VIM-2 inhibitors: dose response biochemical high throughput screening assay to identify inhibitors of IMP-1 metallo-beta-lactamase.
# [6] = target: DNA dC->dU-editing enzyme APOBEC-3G (Homo sapiens, UniProt Q9HC16); assay: Dose Response confirmation of small molecule APOBEC3G DNA Deaminase Inhibitors via a fluorescence-based single-stranded DNA deaminase assay. [Related pubchem assays (depositor defined):AID493012, AID493028]; type: functional
# Beta-lactamase [7] = target: Beta-lactamase (Salmonella choleraesuis (strain SC-B67), UniProt Q5J463); assay: Epi-absorbance-based counterscreen for selective VIM-2 inhibitors: dose response biochemical high throughput screening assay to identify inhibitors of TEM-1 serine-beta-lactamase.
# Beta-lactamase [8] = target: T2, Beta-lactamase; assay: IMP-1 metallo-beta-lactamase inhibitors, dose response, selectivity assay for VIM-2 inhibitor project, biochemical, epi-absorbance (AID 1920)
# [9] = target: DNA dC->dU-editing enzyme APOBEC-3A (Homo sapiens, UniProt P31941); assay: APOBEC3A DNA deaminase inhibitors, dose response, biochemical (AID 504722); type: functional
# Beta-galactosidase = Beta-galactosidase (Escherichia coli, UniProt Q8VNN2); assay: Dose response counterscreen for EBI2 assay utilizing the enzyme, b-galactosidase.; type: functional
# [10] = MITF: Counter assay: A375 proliferation Measured in Cell-Based System Using Plate Reader - 2084-03_Inhibitor_Dose_DryPowder_Activity_Set8.; type: functional; conditions: A-375
# [11] = MITF Orthogonal Assay: SK-MEL-5 CTG Assay Measured in Cell-Based System Using Plate Reader - 2084-02_Inhibitor_Dose_DryPowder_Activity_Set7.; type: functional
# [12] = LMP1-driven NF-kB reporter inhibition, dose response, cell-based, luciferase reporter, luminescence, dry powder, set 2 (AID 624376); type: functional
# [13] = HEK293 cell cytotoxicity, dose response, cytotoxicity control, cherry-picks, set 5 (AID 1053117); type: functional, cell-based
# [14] = target: T3, Botulinum neurotoxin type A (Clostridium botulinum (strain Hall / ATCC 3502 / NCTC 13319 / Type A), UniProt P0DPI1); assay: High-throughput multiplex microsphere dose response for inhibitors of toxin protease, specifically Botulinum neurotoxin light chain A protease, compounds from Powder Set 01.; type: functional, Clostridium botulinum A str. ATCC 3502; conditions: read-out: EC50_MICROM
# [15] = target: T3, Botulinum neurotoxin type A; assay: Confirmatory FRET assay using full length substrates for Botulinum neurotoxin light chain A protease, with Powder Set01.; type: functional
# [16] = target: Melanin-concentrating hormone receptor 1 (Homo sapiens, UniProt Q99705); assay: Fluorescence-based counterscreen for antagonists of the G-protein coupled receptor 7 (GPR7): cell-based high throughput dose response assay to identify antagonists of the melanin-concentrating hormone receptor 1 (MCHR1).; type: functional
# [17] = target: 5-hydroxytryptamine receptor 2A (Mus musculus, UniProt P35363); type: functional, cell-based;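 further: CHO-K1 cells with tagged receptor and beta-arrestin; agonist potency measured as compound-induced activation of the receptor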
# [18] = target: T4, Rac GTPase-activating protein 1 (Homo sapiens, UniProt Q9H0H5); assay: MgcRacGAP GTPase-activating activity inhibitors, confirmation, biochemical, ADP Hunter fluorescence, primary and confirmatory (AID 624330); type: functional
# T4 sequence (Q9H0H5 whole entry): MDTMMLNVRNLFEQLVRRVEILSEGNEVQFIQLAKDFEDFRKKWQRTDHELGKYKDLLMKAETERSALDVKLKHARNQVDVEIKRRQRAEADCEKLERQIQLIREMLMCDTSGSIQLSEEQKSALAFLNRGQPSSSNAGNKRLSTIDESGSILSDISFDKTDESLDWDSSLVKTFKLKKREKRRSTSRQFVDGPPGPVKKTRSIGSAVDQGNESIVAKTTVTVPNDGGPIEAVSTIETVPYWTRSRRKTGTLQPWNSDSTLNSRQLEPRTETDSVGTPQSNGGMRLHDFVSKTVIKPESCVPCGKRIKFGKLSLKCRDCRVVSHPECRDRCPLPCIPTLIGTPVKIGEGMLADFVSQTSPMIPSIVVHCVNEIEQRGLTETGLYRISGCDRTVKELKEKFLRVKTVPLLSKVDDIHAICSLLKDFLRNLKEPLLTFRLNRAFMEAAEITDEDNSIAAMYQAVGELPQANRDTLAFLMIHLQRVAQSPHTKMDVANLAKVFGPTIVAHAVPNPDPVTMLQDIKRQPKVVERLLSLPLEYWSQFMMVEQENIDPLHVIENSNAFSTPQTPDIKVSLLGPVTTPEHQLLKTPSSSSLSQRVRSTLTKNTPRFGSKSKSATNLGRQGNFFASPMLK
# [19] = target: T5, Long-chain-fatty-acid--AMP ligase FadD28 (Mycobacterium tuberculosis, UniProt P9WQ59); assay: Fluorescence polarization aasay to screen for inhibitors that compete for the binding of FadD28 to a bisubstrate Measured in Biochemical System Using Plate Reader - 2147-01_Inhibitor_Dose_CherryPick_Activity.; type: functional, Mycobacterium tuberculosis H37Rv
# T5 sequence (P9WQ59 whole entry): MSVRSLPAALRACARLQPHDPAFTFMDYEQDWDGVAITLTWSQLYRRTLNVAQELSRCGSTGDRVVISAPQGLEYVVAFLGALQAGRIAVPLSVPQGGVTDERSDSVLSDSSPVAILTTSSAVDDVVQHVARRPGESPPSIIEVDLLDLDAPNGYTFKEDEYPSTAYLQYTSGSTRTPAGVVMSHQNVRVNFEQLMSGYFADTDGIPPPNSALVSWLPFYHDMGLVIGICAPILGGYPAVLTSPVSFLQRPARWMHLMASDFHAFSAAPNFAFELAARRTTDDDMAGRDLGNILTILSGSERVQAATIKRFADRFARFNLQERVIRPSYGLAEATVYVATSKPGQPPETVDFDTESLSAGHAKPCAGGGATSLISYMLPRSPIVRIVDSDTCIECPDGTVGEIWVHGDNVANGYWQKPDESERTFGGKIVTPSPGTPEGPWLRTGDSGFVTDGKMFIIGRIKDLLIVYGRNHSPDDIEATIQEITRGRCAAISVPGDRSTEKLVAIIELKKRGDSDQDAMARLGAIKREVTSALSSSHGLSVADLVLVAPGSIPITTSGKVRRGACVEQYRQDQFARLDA
# [20] = target: T6, Neuropeptides B/W receptor type 1 (Homo sapiens, UniProt P48145); assay: Fluorescence-based dose response cell-based high throughput screening assay to identify antagonists of the G-protein coupled receptor 7 (GPR7). [Related pubchem assays: 1952 (Screening assay (GPR7 antagonists).), 1880 (Summary AID.)]; type: functional
# T6 sequence (P48145 whole entry): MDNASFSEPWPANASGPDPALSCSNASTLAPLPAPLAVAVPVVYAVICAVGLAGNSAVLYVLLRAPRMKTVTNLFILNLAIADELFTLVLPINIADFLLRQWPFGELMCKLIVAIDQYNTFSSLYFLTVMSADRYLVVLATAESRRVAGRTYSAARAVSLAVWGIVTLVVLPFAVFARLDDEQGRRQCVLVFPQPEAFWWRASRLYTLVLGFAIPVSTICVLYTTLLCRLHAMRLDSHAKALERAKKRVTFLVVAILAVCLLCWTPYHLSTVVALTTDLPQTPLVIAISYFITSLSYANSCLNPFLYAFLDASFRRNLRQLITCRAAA
# Mu-type opioid receptor = Mu-type opioid receptor (Homo sapiens, UniProt P35372); type: functional, cell-based;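 further: U2OS cells with beta-arrestin recruitment to OPRM1 by beta-gal complementation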
# [21] = target: T7, Oxysterols receptor LXR-beta (Homo sapiens, UniProt P55055); type: functional, cell-based;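 further: agonist activity at LXR measured by a cell-based luminescence readout across a dose range, run as a counterscreen for daf-12 agonists; HEK293 cells with Gal4-LXR fusion and GAL4-driven luciferase reporter; potency for activation of Gal4-LXR reporter so compounds are agonists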
# T7 sequence (P55055 whole entry): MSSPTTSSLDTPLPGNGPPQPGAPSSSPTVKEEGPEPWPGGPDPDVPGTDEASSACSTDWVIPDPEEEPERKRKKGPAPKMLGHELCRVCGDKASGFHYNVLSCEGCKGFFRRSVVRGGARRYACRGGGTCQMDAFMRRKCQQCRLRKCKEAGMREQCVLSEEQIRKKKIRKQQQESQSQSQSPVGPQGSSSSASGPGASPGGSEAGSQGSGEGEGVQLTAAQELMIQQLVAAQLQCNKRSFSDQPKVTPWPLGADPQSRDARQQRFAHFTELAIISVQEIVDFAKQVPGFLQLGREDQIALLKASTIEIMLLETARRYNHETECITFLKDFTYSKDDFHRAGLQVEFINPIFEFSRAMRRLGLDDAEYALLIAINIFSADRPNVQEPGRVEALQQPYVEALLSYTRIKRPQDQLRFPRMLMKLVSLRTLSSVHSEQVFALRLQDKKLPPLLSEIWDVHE
# Vero = assay: Vero cell toxicity, dose response, cytotoxicity control, plate reader, cherry-pick samples (AID 687020); type: functional, cell-based; conditions: Chlorocebus sabaeus
# [22] = HEK293T cytotoxicity, dose response, cytotoxicity control for miR-122 modulator project, cell-based, activator set, cherry-pick (AID 720690); type: functional;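 further: HEK293T human cells scored for general mammalian cytotoxicity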
# [23] = miR-122 activators in hepatoma reporter cells, dose response, cell-based, Huh7 psiCHECK-miR122, Renilla luciferase, cherry-picked (AID 651956); type: functional;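 further: huh7 hepatoma cells stably carrying a psiCHECK-2 miR-122 sensor plasmid; renilla luciferase signal reporting endogenous miR-122 activity after 48 h compound exposure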
# [24] = target: Potassium channel subfamily K member 9 (Homo sapiens, UniProt Q9NPC2); assay: TASK3 (KCNK9) channel inhibitors, thallium flux, SAR follow-up, selectivity assay for TASK1 inhibitor project, cell-based, FluxOR thallium flux, concentration-response (AID 652211); type: functional;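 further: potency is for inhibitors of the channel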
# HeLa = assay: HeLa cell cytotoxicity, dose response, cytotoxicity control, ATP luminescence, cherry-pick samples (AID 687004); type: functional, cell-based; conditions: Homo sapiens
# Albumin = Albumin (Bos taurus, UniProt P02769); assay: Counterscreen for inhibitors of T-cell receptor (TCR)-CD3 interaction: Fluorescence-based biochemical high throughput dose response assay to identify inhibitors of T-cell receptor (TCR)-CD3 interaction using a TAMRA-labeled BSA probe.; type: functional
# Chain of Albumin (P02769 whole entry): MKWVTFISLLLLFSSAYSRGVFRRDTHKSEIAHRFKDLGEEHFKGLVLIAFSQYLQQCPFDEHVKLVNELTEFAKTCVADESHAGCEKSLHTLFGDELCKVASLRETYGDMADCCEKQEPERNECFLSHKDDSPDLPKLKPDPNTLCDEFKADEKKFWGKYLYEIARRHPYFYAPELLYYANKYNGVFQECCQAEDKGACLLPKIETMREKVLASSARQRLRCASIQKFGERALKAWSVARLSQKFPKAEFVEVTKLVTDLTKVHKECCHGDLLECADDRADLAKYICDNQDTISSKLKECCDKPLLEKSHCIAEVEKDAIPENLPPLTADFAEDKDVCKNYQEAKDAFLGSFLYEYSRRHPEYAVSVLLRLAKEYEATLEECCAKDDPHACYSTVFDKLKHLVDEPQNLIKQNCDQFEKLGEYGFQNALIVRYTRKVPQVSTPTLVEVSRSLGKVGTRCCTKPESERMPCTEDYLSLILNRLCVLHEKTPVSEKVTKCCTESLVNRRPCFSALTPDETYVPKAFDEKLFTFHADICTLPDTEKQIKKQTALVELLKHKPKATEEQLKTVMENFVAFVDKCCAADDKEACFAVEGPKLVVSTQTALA
# T3 sequence (P0DPI1 2-448 limits assumed): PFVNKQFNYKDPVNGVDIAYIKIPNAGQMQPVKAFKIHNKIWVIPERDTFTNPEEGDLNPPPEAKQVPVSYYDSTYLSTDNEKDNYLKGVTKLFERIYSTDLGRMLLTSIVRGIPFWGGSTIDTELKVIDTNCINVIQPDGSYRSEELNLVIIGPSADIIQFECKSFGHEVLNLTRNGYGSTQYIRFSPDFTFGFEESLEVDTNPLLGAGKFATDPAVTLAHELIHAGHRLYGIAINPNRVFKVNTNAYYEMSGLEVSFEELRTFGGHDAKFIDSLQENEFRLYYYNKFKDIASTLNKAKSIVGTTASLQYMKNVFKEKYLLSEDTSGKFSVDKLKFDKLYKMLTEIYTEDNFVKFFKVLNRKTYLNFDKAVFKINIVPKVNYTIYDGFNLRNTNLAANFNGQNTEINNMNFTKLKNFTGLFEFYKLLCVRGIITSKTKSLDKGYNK
# T2 sequence (Q79MP6 whole entry): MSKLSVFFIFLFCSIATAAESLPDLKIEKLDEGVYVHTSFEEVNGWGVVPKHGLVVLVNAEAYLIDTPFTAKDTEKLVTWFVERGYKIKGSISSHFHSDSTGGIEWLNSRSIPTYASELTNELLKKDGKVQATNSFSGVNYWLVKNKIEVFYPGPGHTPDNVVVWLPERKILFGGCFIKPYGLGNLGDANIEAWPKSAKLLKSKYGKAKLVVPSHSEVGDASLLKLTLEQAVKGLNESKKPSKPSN
# Chain of Melanin-concentrating hormone receptor 1 (Q99705 whole entry): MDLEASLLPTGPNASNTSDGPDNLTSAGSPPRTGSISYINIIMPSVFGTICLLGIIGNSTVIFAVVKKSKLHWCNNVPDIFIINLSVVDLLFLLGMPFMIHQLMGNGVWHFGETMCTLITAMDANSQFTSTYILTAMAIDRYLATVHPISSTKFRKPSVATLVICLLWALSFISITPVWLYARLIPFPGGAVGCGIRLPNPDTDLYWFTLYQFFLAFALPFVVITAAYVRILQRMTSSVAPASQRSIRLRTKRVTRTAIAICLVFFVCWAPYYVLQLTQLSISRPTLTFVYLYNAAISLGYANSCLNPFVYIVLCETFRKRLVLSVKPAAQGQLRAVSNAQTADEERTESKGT
# Chain of Potassium channel subfamily K member 9 (Q9NPC2 whole entry): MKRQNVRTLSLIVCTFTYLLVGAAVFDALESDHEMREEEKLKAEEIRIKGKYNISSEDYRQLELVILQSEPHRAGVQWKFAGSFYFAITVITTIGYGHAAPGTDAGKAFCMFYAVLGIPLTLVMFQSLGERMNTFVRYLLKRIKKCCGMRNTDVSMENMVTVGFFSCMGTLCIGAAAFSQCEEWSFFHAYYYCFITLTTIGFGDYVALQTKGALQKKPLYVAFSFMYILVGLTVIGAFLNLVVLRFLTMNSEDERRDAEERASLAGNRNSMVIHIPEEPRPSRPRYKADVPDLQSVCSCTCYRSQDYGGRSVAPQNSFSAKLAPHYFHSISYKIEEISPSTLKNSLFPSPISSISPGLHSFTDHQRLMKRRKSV
# Chain of Beta-lactamase (Salmonella choleraesuis (strain SC-B67), UniProt Q5J463) (Q5J463 whole entry): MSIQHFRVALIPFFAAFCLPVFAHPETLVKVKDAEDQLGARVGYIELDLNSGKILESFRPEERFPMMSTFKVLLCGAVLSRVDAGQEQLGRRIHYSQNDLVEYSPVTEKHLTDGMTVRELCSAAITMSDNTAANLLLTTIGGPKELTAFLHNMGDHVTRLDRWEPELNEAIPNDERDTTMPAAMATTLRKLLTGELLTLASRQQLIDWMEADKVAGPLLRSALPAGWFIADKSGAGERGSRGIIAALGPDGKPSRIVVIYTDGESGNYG
# Chain of Beta-galactosidase (Q8VNN2 whole entry): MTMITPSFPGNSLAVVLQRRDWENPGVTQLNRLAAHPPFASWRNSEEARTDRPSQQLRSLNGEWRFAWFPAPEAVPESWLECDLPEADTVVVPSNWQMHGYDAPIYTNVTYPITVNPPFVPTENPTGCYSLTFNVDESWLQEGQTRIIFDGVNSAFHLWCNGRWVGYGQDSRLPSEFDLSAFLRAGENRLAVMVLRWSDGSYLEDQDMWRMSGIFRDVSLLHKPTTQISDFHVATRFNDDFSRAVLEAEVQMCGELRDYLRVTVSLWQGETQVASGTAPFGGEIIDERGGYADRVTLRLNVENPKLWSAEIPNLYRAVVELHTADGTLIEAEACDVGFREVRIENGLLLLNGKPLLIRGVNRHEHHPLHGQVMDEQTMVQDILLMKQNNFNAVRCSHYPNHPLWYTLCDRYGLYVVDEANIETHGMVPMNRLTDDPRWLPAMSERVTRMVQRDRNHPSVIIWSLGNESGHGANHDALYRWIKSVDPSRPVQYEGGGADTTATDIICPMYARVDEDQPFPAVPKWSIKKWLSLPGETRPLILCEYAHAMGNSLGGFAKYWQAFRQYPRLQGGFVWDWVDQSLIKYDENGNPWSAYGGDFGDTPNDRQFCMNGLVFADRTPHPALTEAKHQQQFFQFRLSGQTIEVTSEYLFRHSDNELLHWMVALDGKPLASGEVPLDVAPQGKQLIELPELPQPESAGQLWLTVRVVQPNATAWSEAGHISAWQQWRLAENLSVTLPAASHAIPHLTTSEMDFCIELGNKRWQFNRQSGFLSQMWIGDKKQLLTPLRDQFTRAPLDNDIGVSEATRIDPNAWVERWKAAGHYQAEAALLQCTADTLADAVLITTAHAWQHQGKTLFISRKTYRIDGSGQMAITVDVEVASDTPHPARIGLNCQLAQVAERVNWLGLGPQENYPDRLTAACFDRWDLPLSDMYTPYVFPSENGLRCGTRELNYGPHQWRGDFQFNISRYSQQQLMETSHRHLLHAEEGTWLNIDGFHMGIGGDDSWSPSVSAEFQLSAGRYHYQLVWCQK
# Chain of Paired box protein Pax-8 (Q06710 whole entry): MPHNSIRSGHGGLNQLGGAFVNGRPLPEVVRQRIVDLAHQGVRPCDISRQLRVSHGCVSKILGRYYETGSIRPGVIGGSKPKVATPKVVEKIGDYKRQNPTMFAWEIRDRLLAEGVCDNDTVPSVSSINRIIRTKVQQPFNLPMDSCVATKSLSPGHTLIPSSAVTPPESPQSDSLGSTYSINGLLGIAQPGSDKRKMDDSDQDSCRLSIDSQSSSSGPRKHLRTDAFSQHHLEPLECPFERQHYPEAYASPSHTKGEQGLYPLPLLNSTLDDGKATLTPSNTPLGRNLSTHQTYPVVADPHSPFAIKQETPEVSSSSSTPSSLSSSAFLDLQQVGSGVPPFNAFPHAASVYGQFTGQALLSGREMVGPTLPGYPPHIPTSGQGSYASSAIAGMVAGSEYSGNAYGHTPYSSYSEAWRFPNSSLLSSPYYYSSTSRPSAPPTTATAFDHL
# Chain of Mu-type opioid receptor (P35372 whole entry, the tested form may be a part): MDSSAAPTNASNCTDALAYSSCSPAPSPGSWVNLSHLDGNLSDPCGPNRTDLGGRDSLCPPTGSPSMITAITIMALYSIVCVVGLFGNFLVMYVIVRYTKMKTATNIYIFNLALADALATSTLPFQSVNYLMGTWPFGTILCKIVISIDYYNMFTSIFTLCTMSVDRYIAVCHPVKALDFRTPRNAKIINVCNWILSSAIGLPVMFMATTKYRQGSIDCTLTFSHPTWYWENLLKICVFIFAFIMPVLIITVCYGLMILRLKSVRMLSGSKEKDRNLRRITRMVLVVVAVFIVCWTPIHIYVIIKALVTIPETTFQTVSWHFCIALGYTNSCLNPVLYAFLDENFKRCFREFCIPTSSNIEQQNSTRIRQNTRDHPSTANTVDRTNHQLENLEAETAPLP
# Chain of DNA dC->dU-editing enzyme APOBEC-3A (P31941 whole entry): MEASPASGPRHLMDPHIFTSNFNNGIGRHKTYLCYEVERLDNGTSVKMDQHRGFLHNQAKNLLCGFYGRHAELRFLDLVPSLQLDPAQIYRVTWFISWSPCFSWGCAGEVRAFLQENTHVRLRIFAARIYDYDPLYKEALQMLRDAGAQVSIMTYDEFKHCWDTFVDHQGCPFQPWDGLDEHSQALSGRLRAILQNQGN
# Chain of 5-hydroxytryptamine receptor 2A (P35363 whole entry): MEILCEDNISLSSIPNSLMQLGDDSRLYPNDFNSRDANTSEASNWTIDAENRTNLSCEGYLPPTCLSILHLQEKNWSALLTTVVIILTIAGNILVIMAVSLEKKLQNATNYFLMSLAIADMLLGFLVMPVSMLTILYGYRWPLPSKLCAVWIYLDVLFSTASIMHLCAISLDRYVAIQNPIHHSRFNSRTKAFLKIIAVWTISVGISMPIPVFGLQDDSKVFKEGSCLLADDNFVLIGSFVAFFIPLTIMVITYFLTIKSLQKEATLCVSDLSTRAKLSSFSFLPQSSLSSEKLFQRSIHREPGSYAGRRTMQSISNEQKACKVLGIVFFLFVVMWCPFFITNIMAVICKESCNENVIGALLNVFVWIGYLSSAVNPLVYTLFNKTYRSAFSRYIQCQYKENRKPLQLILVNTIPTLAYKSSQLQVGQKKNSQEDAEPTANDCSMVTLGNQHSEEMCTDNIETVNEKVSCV
smiles,measurement,setting,value
COc1cc(-c2cnc3c(NC=O)cc(-c4ccc(C)cc4)cn23)cc(OC)c1OC,IC50,cells,> 67.5 µM (inactive)
same,AC50,Paired box protein Pax-8,< 0.26 µM (active)
same,IC50,[1],> 0.834 µM (active)
COc1ccc(N/C=C2/C=C(Br)C(=O)OC2=O)c(OC)c1,IC50,[2],3.8 µM (active)
same,IC50,[3],11.4 µM (inactive)
CC(C)NC(=O)N(C)C[C@@H]1Oc2ccc(NC(=O)Cc3cn(C)c4ccccc34)cc2C(=O)N([C@H](C)CO)C[C@H]1C,AC50,[4],> 47 µM (inactive)
Cn1c(-c2sccc2OCc2ccccc2)n[nH]c1=S,IC50,Beta-lactamase [5],> 59.6 µM (inactive)
same,IC50,[6],2.8 µM (active)
same,IC50,Beta-lactamase [7],> 59.6 µM (inactive)
same,IC50,Beta-lactamase [8],> 59.6 µM (inactive)
same,IC50,[9],> 100 µM (inactive)
Cc1ccc(Oc2ccc(Oc3ccc(C)cc3)nn2)cc1,IC50,Beta-galactosidase,> 80 µM (inactive)
O=C1C=C(NCc2ccccc2)C(=O)c2ccccc21,AC50,[10],> 70 µM (inactive)
same,AC50,[11],7.74 µM (active)
C[C@H](NC(=O)C[C@H]1C[C@@H]2c3cc(NC(=O)c4cccnc4)ccc3O[C@@H]2[C@@H](CO)O1)c1ccccc1,AbsAC35,[12],164.54 µM
CN(C)C(=O)c1ccc(-c2ccc3c(c2)[C@@H]2[C@@H](CCN2C(=O)c2ccc(F)cc2)[C@H](CO)N3C)cc1,AC50,[13],> 52 µM (inactive)
O=[N+]([O-])c1ccc([N+]2=N[C-](c3ccccc3)CC2c2ccccc2)cc1 (stereo unspecified),EC50,[14],0.3 µM (active)
same,EC50,[15],1.1 µM (active)
C/N=c1\scc(-c2ccc(F)cc2)n1/N=C/c1ccc(O)c(O)c1,IC50,[16],13 µM (not active)
same,EC50,[17],5.08 µM (active)
same,IC50,[18],29.6 µM (active)
same,AC50,[19],12.2 µM (active)
same,IC50,[20],> 14.6 µM (not active)
same,EC50,Mu-type opioid receptor,92.5 µM (inactive)
O=C(Nc1ccc(Cl)cn1)c1cc2ccccc2o1,EC50,[21],> 67.5 µM (inactive)
CCOC(=O)[C@@H]1[C@H]2COc3ccc(Br)cc3[C@@H]2N2C(=O)N(c3ccc(C)cc3)C(=O)[C@]12C,AC50,Vero,35.3 µM (active)
CN1C(=O)c2cc(NC(=O)c3cccc(F)c3)ccc2OC[C@H]2O[C@H](CC(=O)N3CCc4ccccc4C3)CC[C@@H]21,AC50,[22],31.3 µM (active)
same,AC50,[23],18.8 µM (active)
COc1cccc(C(=O)Nc2cccc(NC(=O)c3cccc(C)c3)c2)c1,IC50,[24],29.3 µM (active)
N#Cc1ccc(-c2ccc3c(c2)[C@H]2[C@H](CCN2C(=O)Cc2ccccc2)[C@@H](CO)N3)cc1,AC50,HeLa,28.5 µM (active)
O=C(NNC(=O)c1ccc2ccccc2c1O)c1cccs1,IC50,Albumin,> 94.1 µM (inactive)
